Test results reported in US20060240048A1 (priority 2002, published 2006).

Target: T1, human cannabinoid CB2 receptor (Homo sapiens, UniProt P34972)
T1 construct: expressed in transfected cells; host or cells: Saccharomyces cerevisiae strain MMY23
Assay: Cannabinoid CB2 receptor agonist activity, yeast reporter assay (FDGlu fluorescence);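 for Emax: 100% equals maximal response of reference agonist HU210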
Assay type: cell-based
Settings: for Emax: read-out: efficacy value (Emax) at the cloned human cannabinoid CB2 receptor

T1 sequence (P34972 whole entry): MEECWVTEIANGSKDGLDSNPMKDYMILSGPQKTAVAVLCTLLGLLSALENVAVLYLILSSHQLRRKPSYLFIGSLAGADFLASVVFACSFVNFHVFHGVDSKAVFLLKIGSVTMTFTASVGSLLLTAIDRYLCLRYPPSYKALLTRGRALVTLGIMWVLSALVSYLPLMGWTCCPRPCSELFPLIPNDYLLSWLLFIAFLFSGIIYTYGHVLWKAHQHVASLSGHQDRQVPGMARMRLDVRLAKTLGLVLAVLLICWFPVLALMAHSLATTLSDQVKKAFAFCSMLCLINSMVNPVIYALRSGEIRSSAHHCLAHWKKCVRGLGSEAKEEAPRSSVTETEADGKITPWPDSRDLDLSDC

Compound	Emax	EC50
CC(C)c1cc(N(C)c2ccc(Cl)c(Cl)c2)ncc1C(=O)NCC1CCOCC1 [Example 44, 6-[(3,4-Dichloro-phenyl)-methyl-amino]-4-isopropyl-N-(tetrahydro-pyran-4-ylmethyl)-nicotinamide]	> 50%	
CC(C)c1cc(Nc2ccc(OC(F)(F)F)cc2Br)ncc1C(=O)NCC1CCOCC1 [Example 240, 6-(2-Bromo-4-trifluoromethoxy-phenylamino)-4-isopropyl-N-(tetrahydro-pyran-4-ylmethyl)-nicotinamide]	> 50%	< 300 nM
Cc1c(Br)cccc1Nc1cc(C(C)C)c(C(=O)NCC(C)C)cn1 [Example 272, 6-(3-Bromo-2-methyl-phenylamino)-N-isobutyl-4-isopropyl-nicotinamide]	> 50%	< 300 nM
O=C(NCC1CCC1)c1cnc(Nc2cccc(Br)c2)cc1C(F)(F)F [Example 120, N-Cyclobutylmethyl-6-(3-bromo-phenylamino)-4-tri-fluoromethyl-nicotinamide]	> 50%	< 300 nM
O=C(NCC1CCCCCC1)c1cnc(Nc2cccc(Cl)c2Cl)cc1C(F)(F)F [Example 137, N-Cycloheptylmethyl-6-(2,3-dichloro-phenylamino)-4-tri-fluoromethyl-nicotinamide]	> 50%	< 300 nM
CC(C)c1cc(Nc2cc(Cl)ccc2C#N)ncc1C(=O)NCC1CCOCC1 [Example 221, 6-(S-Chloro-2-cyano-phenylamino)-4-isopropyl-N-(tetrahydro-pyran-4-ylmethyl)-nicotinamide]	< 30%	300 to 1000 nM
O=C(NCC1CC1)c1cnc(Nc2cccc(Br)c2)cc1C(F)(F)F [Example 123, N-Cyclopropylmethyl-6-(3-bromo-phenylamino)-4-tri-fluoromethyl-nicotinamide]	> 50%	< 300 nM
Cc1cc(Cl)ccc1Nc1cc(C(F)(F)F)c(C(=O)NCC2CCCCC2)cn1 [Example 171, N-Cyclohexylmethyl-6-(2-methyl-4-chloro-phenyl-amino)-4-trifluoromethyl-nicotinamide]	> 50%	< 300 nM
O=C(NCC1CCC1)c1cnc(Nc2ccccc2)cc1C(F)(F)F [Example 109, N-Cyclobutylmethyl-6-phenylamino-4-trifluoro-methyl-nicotinamide]	> 50%	< 300 nM
CC(C)c1cc(Nc2cccc(Cl)c2)ncc1C(=O)NCC1CCS(=O)(=O)C1 (centres unmarked) [Example 223, 6-(3-Chloro-phenylamino)-N-(1,1-dioxo-tetrahydro-1/^6-thiophen-3-ylmethyl)-4-isopropyl-nicotinamide]	> 50%	< 300 nM
CC(C)c1cc(Nc2cccc(C(F)(F)F)c2)ncc1C(=O)NCC1CCOCC1 [Example 19, 4-Isopropyl-N-(tetrahydro-pyran-4-ylmethyl)-6-(3-trifluoromethyl-phenylamino) nicotinamide]	> 50%	< 300 nM
Cc1cc(C#N)ccc1Nc1cc(C(C)C)c(C(=O)NCC2CCC2)cn1 [Example 261, 6-(4-Cyano-2-methyl-phenylamino)-N-cyclobutylmethyl-4-isopropyl-nicotinamide]	> 50%	< 300 nM
CC(C)c1cc(Nc2cccc(OC(F)(F)F)c2)ncc1C(=O)NCC1CCC1 [Example 224, N-Cyclobutylmethyl-4-isopropyl-6-(3-trifluoromethoxy-phenylamino)-nicotinamide]	> 50%	< 300 nM
CC(C)c1nc(Nc2cccc(F)c2)ccc1C(=O)NCC1CCC1 [Example 216, 6-(3-Fluoro-phenylamino)-N-cyclobutylmethyl-2-isopropyl-nicotinamide]	> 50%	< 300 nM
O=C(NCC1CCC1)c1cnc(Nc2ccc(Cl)cc2Cl)cc1C(F)(F)F [Example 142, N-Cyclobutylmethyl-6-(2,4-dichloro-phenylamino)-4-tri-fluoromethyl-nicotinamide]	> 50%	< 300 nM
